From patent US20210115401A1, “Methods and Materials for the Generation of Regulatory T Cells” (LIFE TECHNLOGIES AS, priority 2006, published 2021)

Test system: CD4+ T cells
Assay: Surface marker (CD4, CD25, CXCR3) and intracellular FOXP3 analysis of expanded CD4+ T cells
Assay type: cell-based
Description: 1) Isolate CD4+ T cells from peripheral blood or leukopheresis products by the use of Dynal® CD4 Positive isolation kit, Dynal® CD4 Negative Isolation kit, Dynabeads® MyPure™ CD4 T cell kit, or CD4 Microbeads MACS®.
2) Stimulate 1.5×10^6 CD4+ T cells with anti-CD3/CD28 Dynabeads (3:1 bead: T cell ratio) in X-vivo medium with 1000 U/ml IL-4 (optional), 20 U/ml IL-2 and 1 μM final concentration of Rapamycin. Total medium volume should be 1.5 ml per 1.5×10^6 CD4+ T cells in a 24 well plate. The protocol can be scaled up.
3) On day 2, add a 10× concentrate that contains 10,000 U/ml IL-4 (optional) and […]. Add this in a volume that is 10% of the initial culture volume.
4) On day 4, add the cytokine concentrate similar to day 2.
5) On day 6, add the 10× cytokine concentrate again and take an aliquot to count the cells. This is the first time that the culture should be disturbed. Based on the count adjust the cell concentration to 1×10^6 CD4 cell/ml. Split wells and add culture medium containing Rapamycin, 1000 U/ml IL-4 (optional), 20 U/ml IL-2 to maintain cell concentration at 0.5×10^6 cells/ml.
6) From day 7 to day 12 count the cells daily. Split wells and add culture medium containing Rapamycin, 1000 U/ml IL-4 (optional), 20 U/ml IL-2 to maintain the cell concentration at 0.5×10^6 cells/ml. On day 12 the beads are removed using a magnet.
7) On day 14-15 the cells can be analyzed for surface marker expression and functional properties.
CD4+ T cells were isolated from peripheral blood by negative and/or positive isolation as described in Example 1. After expansion with IL-2, +/−IL-4, CD3/CD28 Dynabeads®, with or without Rapamycin the expanded cells were analyzed for various surface markers (CD4, CD25, CD62L, CRTh2, CCR4, CXCR3, CCR7) and for intracellular FOXP3 expression and cytokine secretion. Suppressive capacity was analyzed in standard functional assays as described below.

In the case of `CO[C@H]1C[C@@H]2CC[C@@H](C)[C@@](O)(O2)C(=O)C(=O)N2CCCC[C@H]2C(=O)O[C@H]([C@H](C)C[C@@H]2CC[C@@H](O)[C@H](OC)C2)CC(=O)[C@H](C)/C=C(\C)[C@@H](O)[C@@H](OC)C(=O)[C@H](C)C[C@H](C)/C=C/C=C/C=C/1C` [Rapamycin], the “expanded cells expressing high levels of CD25” value (CD4+ T cells expanded with CD3/CD28 Dynabeads, IL-2, +/−IL-4 and Rapamycin) is reported as “Approximately 70%”, the “CD4+CD25+ T cells among expanded cells (flow cytometry, FIG. 2)” value (CD4+ T cells expanded with rapamycin, 20% in the absence of rapamycin) is reported as 80% and the “cells expressing FOXP3 after expansion” value (after expansion with or without Rapamycin, freshly isolated CD4+ T cells 10%) is reported as 10%.
